Reference: patent US20240207302A1, “ANTIVIRAL COMPOUNDS, METHODS FOR THE MANUFACTURING OF COMPOUNDS, ANTIVIRAL PHARMACEUTICAL COMPOSITION, USE OF THE COMPOUNDS AND METHOD FOR THE ORAL TREATMENT OF CORONAVIRUS INFECTION AND RELATED DISEASES THEREOF” (priority 2021, published 2024)

What was measured:
[1] = system: Salmonella typhimirium TA 97a, TA 98, TA 100, TA 102 and TA 1535; test: Bacterial reverse mutation (Ames) test
SARS-COV-2 VoC gamma = format: in vivo, mice
[2] = 140 mg/kg/day alone and in combination with DTG
[3] = 140 mg/kg/day, vs untreated animals

c1coc(CNc2ncnc3[nH]cnc23)c1 [MB-905, kinetin]
Mutagenicity ([1]; TA 97a +S9, 8 μg/mL): − | Mutagenicity ([1]; TA 97a +S9, 40 μg/mL): − | Mutagenicity ([1]; TA 97a +S9, 200 μg/mL): − | Mutagenicity ([1]; TA 97a +S9, 1,000 μg/mL): − | Mutagenicity ([1]; TA 97a +S9, 5,000 μg/mL): − | Mutagenicity ([1]; TA 97a −S9, 8 μg/mL): − | Mutagenicity ([1]; TA 97a −S9, 40 μg/mL): − | Mutagenicity ([1]; TA 97a −S9, 200 μg/mL): − | Mutagenicity ([1]; TA 97a −S9, 1,000 μg/mL): − | Mutagenicity ([1]; TA 97a −S9, 5,000 μg/mL): − | Mutagenicity ([1]; TA 98 +S9, 8 μg/mL): − | Mutagenicity ([1]; TA 98 +S9, 40 μg/mL): − | Mutagenicity ([1]; TA 98 +S9, 200 μg/mL): − | Mutagenicity ([1]; TA 98 +S9, 1,000 μg/mL): − | Mutagenicity ([1]; TA 98 +S9, 5,000 μg/mL): − | Mutagenicity ([1]; TA 98 −S9, 8 μg/mL): − | Mutagenicity ([1]; TA 98 −S9, 40 μg/mL): − | Mutagenicity ([1]; TA 98 −S9, 200 μg/mL): − | Mutagenicity ([1]; TA 98 −S9, 1,000 μg/mL): − | Mutagenicity ([1]; TA 98 −S9, 5,000 μg/mL): − | Mutagenicity ([1]; TA 100 +S9, 8 μg/mL): − | Mutagenicity ([1]; TA 100 +S9, 40 μg/mL): − | Mutagenicity ([1]; TA 100 +S9, 200 μg/mL): − | Mutagenicity ([1]; TA 100 +S9, 1,000 μg/mL): − | Mutagenicity ([1]; TA 100 +S9, 5,000 μg/mL): − | Mutagenicity ([1]; TA 100 −S9, 8 μg/mL): − | Mutagenicity ([1]; TA 100 −S9, 40 μg/mL): − | Mutagenicity ([1]; TA 100 −S9, 200 μg/mL): − | Mutagenicity ([1]; TA 100 −S9, 1,000 μg/mL): − | Mutagenicity ([1]; TA 100 −S9, 5,000 μg/mL): − | Mutagenicity ([1]; TA 102 +S9, 8 μg/mL): − | Mutagenicity ([1]; TA 102 +S9, 40 μg/mL): − | Mutagenicity ([1]; TA 102 +S9, 200 μg/mL): − | Mutagenicity ([1]; TA 102 +S9, 1,000 μg/mL): − | Mutagenicity ([1]; TA 102 +S9, 5,000 μg/mL): − | Mutagenicity ([1]; TA 102 −S9, 8 μg/mL): − | Mutagenicity ([1]; TA 102 −S9, 40 μg/mL): − | Mutagenicity ([1]; TA 102 −S9, 200 μg/mL): − | Mutagenicity ([1]; TA 102 −S9, 1,000 μg/mL): − | Mutagenicity ([1]; TA 102 −S9, 5,000 μg/mL): − | Mutagenicity ([1]; TA 1535 +S9, 8 μg/mL): − | Mutagenicity ([1]; TA 1535 +S9, 40 μg/mL): − | Mutagenicity ([1]; TA 1535 +S9, 200 μg/mL): − | Mutagenicity ([1]; TA 1535 +S9, 1,000 μg/mL): − | Mutagenicity ([1]; TA 1535 +S9, 5,000 μg/mL): − | Mutagenicity ([1]; TA 1535 −S9, 8 μg/mL): − | Mutagenicity ([1]; TA 1535 −S9, 40 μg/mL): − | Mutagenicity ([1]; TA 1535 −S9, 200 μg/mL): − | Mutagenicity ([1]; TA 1535 −S9, 1,000 μg/mL): − | Mutagenicity ([1]; TA 1535 −S9, 5,000 μg/mL): − | mutagenic activity in the reverse mutation test ([1]; all strains, absence and presence of S9): no mutagenic activity | body weight (SARS-COV-2 VoC gamma; [2]): sustain their masses beyond the threshold of euthanasia | overall clinical scores (SARS-COV-2 VoC gamma; [2]): improved | virus RNA levels in the lungs (SARS-COV-2 VoC gamma; 140 mg/kg/day with or without DTG): did not alter | infectious titers (SARS-COV-2 VoC gamma; 140 mg/kg/day with or without DTG, BAL): decreased significantly | IL-6 in BAL (SARS-COV-2 VoC gamma; [3]): reduced | KC in BAL (SARS-COV-2 VoC gamma; [3]): reduced
